In patent US10550111B2, “Pyrimidine urea compound containing isoxazolines and use thereof” (SHENYANG SINOCHEM AGROCHEMICALS R&D CO., LTD, priority 2014, dated 2020):

Assays:
Assay type in all cases: in vivo
[1] = system: Abutilon theophrasti Medic.; experiment: Bioassay of herbicidal activity in greenhouse (further screening)
Protocol: (§1) Determination of herbicidal activity of compounds of the present invention against weeds was carried out by the following procedures:
(§2) Seeds of monocotyledonous and dicotyledonous weeds were sown in nutrition soil in paper pot (7 cm diameter), covered with soil in 1 cm and grown in the greenhouse under good growth conditions (temperature, atmospheric humidity, water supply). The compounds of the present invention as emulsifiable concentrate, were applied in pre-emergence and post-emergence treatment by track sprayer (Engineer Research Ltd., pressure 1.95 kg/cm^2, volume 500 L/hm^2, track speed 1.48 km/h). Pre-emergence treatment was conducted after seeding 24 hours and post-emergence treatment was done when the respective weeds reached predetermined leaf stage (grass weed 2- to 3-leaf stage, broad-leaf weed 2- to 4-leaf stage), the state of growth of the respective weeds were visually observed to determine the growth inhibition rate (%) in accordance with the following evaluation standard.
(§3) Growth inhibition rate (%): 0=no discernible action: 100=all weeds dead or not emerged.

[2] = system: Echinochloa crus-galli (L.) Beauv.; experiment: as above
Protocol: as §1, §2, §3

[3] = system: Setaria glauca (L.) Beauv.; experiment: as above
Protocol: as §1, §2, §3

Zinnia elegans Jacq. = experiment: as above
Protocol: as §1, §2, §3

[4] = system: broad-leaf weeds and grass weeds; experiment: General screening of herbicidal activity in greenhouse; details: 1000 g a.i./hm^2;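 also: 0 means no visible effect and 100 means all weeds dead or not emerged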
Protocol: as §1, §2, §3

Q: `Cn1c(C(F)(F)F)cc(=O)n(-c2cc(C3=NOC(C)(COS(C)(=O)=O)C3)c(Cl)cc2F)c1=O` (centres unmarked) [Compound 88] was tested. Which “Growth inhibition rate, Post-emergence treatment, Abutilon theophrasti Medic.” value ([1]; dose 7.5 g a.i./hm^2) did it give?
A: The value was 98%.

Q: And the “Growth inhibition rate, Post-emergence treatment, Abutilon theophrasti Medic.” value ([1]; dose 15 g a.i./hm^2)?
A: The value was 100%.

Q: What about the “Growth inhibition rate, Post-emergence treatment, Abutilon theophrasti Medic.” value ([1]; dose 37.5 g a.i./hm^2) of the same compound?
A: The value was 98%.

Q: And the “Growth inhibition rate, Post-emergence treatment, Abutilon theophrasti Medic.” value ([1]; dose 150 g a.i./hm^2)?
A: Its value is 100%.

Q: And the “Growth inhibition rate, Post-emergence treatment, Abutilon theophrasti Medic.” value ([1]; dose 600 g a.i./hm^2)?
A: The value was 100%.

Q: What about the “Growth inhibition rate, Pre-emergence treatment, Abutilon theophrasti Medic.” value ([1]; dose 7.5 g a.i./hm^2) of the same compound?
A: The value was 98%.

Q: And the “Growth inhibition rate, Pre-emergence treatment, Abutilon theophrasti Medic.” value ([1]; dose 15 g a.i./hm^2)?
A: The value was 100%.

Q: What about the “Growth inhibition rate, Pre-emergence treatment, Abutilon theophrasti Medic.” value ([1]; dose 37.5 g a.i./hm^2) of the same compound?
A: Its value is 85%.

Q: What about the “Growth inhibition rate, Pre-emergence treatment, Abutilon theophrasti Medic.” value ([1]; dose 150 g a.i./hm^2) of the same compound?
A: The value was 100%.

Q: What about the “Growth inhibition rate, Pre-emergence treatment, Abutilon theophrasti Medic.” value ([1]; dose 600 g a.i./hm^2) of the same compound?
A: The value was 100%.

Q: What about the “Growth inhibition rate, Post-emergence treatment, Echinochloa crus-galli (L.) Beauv.” value ([2]; dose 7.5 g a.i./hm^2) of the same compound?
A: Its value is 15%.

Q: What about the “Growth inhibition rate, Post-emergence treatment, Echinochloa crus-galli (L.) Beauv.” value ([2]; dose 15 g a.i./hm^2) of the same compound?
A: Its value is 20%.

Q: And the “Growth inhibition rate, Post-emergence treatment, Echinochloa crus-galli (L.) Beauv.” value ([2]; dose 37.5 g a.i./hm^2)?
A: The value was 25%.

Q: And the “Growth inhibition rate, Post-emergence treatment, Echinochloa crus-galli (L.) Beauv.” value ([2]; dose 150 g a.i./hm^2)?
A: The value was 60%.

Q: What about the “Growth inhibition rate, Post-emergence treatment, Echinochloa crus-galli (L.) Beauv.” value ([2]; dose 600 g a.i./hm^2) of the same compound?
A: Its value is 95%.

Q: What about the “Growth inhibition rate, Pre-emergence treatment, Echinochloa crus-galli (L.) Beauv.” value ([2]; dose 7.5 g a.i./hm^2) of the same compound?
A: The value was 5%.

Q: And the “Growth inhibition rate, Pre-emergence treatment, Echinochloa crus-galli (L.) Beauv.” value ([2]; dose 15 g a.i./hm^2)?
A: Its value is 10%.

Q: What about the “Growth inhibition rate, Pre-emergence treatment, Echinochloa crus-galli (L.) Beauv.” value ([2]; dose 37.5 g a.i./hm^2) of the same compound?
A: The value was 15%.

Q: What about the “Growth inhibition rate, Pre-emergence treatment, Echinochloa crus-galli (L.) Beauv.” value ([2]; dose 150 g a.i./hm^2) of the same compound?
A: Its value is 80%.

Q: What about the “Growth inhibition rate, Pre-emergence treatment, Echinochloa crus-galli (L.) Beauv.” value ([2]; dose 600 g a.i./hm^2) of the same compound?
A: The value was 100%.

Q: And the “Growth inhibition rate, Post-emergence treatment, Setaria glauca (L.) Beauv.” value ([3]; dose 7.5 g a.i./hm^2)?
A: The value was 25%.

Q: What about the “Growth inhibition rate, Post-emergence treatment, Setaria glauca (L.) Beauv.” value ([3]; dose 15 g a.i./hm^2) of the same compound?
A: Its value is 30%.

Q: And the “Growth inhibition rate, Post-emergence treatment, Setaria glauca (L.) Beauv.” value ([3]; dose 37.5 g a.i./hm^2)?
A: The value was 45%.

Q: What about the “Growth inhibition rate, Post-emergence treatment, Setaria glauca (L.) Beauv.” value ([3]; dose 150 g a.i./hm^2) of the same compound?
A: Its value is 70%.

Q: And the “Growth inhibition rate, Post-emergence treatment, Setaria glauca (L.) Beauv.” value ([3]; dose 600 g a.i./hm^2)?
A: Its value is 98%.

Q: What about the “Growth inhibition rate, Pre-emergence treatment, Setaria glauca (L.) Beauv.” value ([3]; dose 7.5 g a.i./hm^2) of the same compound?
A: Its value is 65%.

Q: What about the “Growth inhibition rate, Pre-emergence treatment, Setaria glauca (L.) Beauv.” value ([3]; dose 15 g a.i./hm^2) of the same compound?
A: Its value is 80%.

Q: And the “Growth inhibition rate, Pre-emergence treatment, Setaria glauca (L.) Beauv.” value ([3]; dose 37.5 g a.i./hm^2)?
A: The value was 30%.

Q: And the “Growth inhibition rate, Pre-emergence treatment, Setaria glauca (L.) Beauv.” value ([3]; dose 150 g a.i./hm^2)?
A: The value was 85%.

Q: What about the “Growth inhibition rate, Pre-emergence treatment, Setaria glauca (L.) Beauv.” value ([3]; dose 600 g a.i./hm^2) of the same compound?
A: The value was 100%.

Q: What about the “Growth inhibition rate, Post-emergence treatment, Zinnia elegans Jacq.” value (Zinnia elegans Jacq.; dose 7.5 g a.i./hm^2) of the same compound?
A: Its value is 98%.

Q: What about the “Growth inhibition rate, Post-emergence treatment, Zinnia elegans Jacq.” value (Zinnia elegans Jacq.; dose 15 g a.i./hm^2) of the same compound?
A: Its value is 100%.

Q: And the “Growth inhibition rate, Post-emergence treatment, Zinnia elegans Jacq.” value (Zinnia elegans Jacq.; dose 37.5 g a.i./hm^2)?
A: Its value is 100%.

Q: What about the “Growth inhibition rate, Post-emergence treatment, Zinnia elegans Jacq.” value (Zinnia elegans Jacq.; dose 150 g a.i./hm^2) of the same compound?
A: The value was 100%.

Q: What about the “Growth inhibition rate, Post-emergence treatment, Zinnia elegans Jacq.” value (Zinnia elegans Jacq.; dose 600 g a.i./hm^2) of the same compound?
A: Its value is 100%.

Q: What about the “Growth inhibition rate, Pre-emergence treatment, Zinnia elegans Jacq.” value (Zinnia elegans Jacq.; dose 7.5 g a.i./hm^2) of the same compound?
A: The value was 20%.

Q: And the “Growth inhibition rate, Pre-emergence treatment, Zinnia elegans Jacq.” value (Zinnia elegans Jacq.; dose 15 g a.i./hm^2)?
A: The value was 30%.

Q: What about the “Growth inhibition rate, Pre-emergence treatment, Zinnia elegans Jacq.” value (Zinnia elegans Jacq.; dose 37.5 g a.i./hm^2) of the same compound?
A: The value was 45%.

Q: What about the “Growth inhibition rate, Pre-emergence treatment, Zinnia elegans Jacq.” value (Zinnia elegans Jacq.; dose 150 g a.i./hm^2) of the same compound?
A: Its value is 100%.

Q: And the “Growth inhibition rate, Pre-emergence treatment, Zinnia elegans Jacq.” value (Zinnia elegans Jacq.; dose 600 g a.i./hm^2)?
A: Its value is 100%.

Q: What about the “pre-emergence and post-emergence herbicidal activity against broad-leaf weeds and grass weeds” value [4] of the same compound?
A: Its value is “good”.

Q: Which “Growth inhibition rate, Post-emergence treatment, Abutilon theophrasti Medic.” value ([1]; dose 7.5 g a.i./hm^2) does the source give for `Cn1c(C(F)(F)F)cc(=O)n(-c2cc(C3=NOC(C)(C(=O)OCC(F)(F)F)C3)c(Cl)cc2F)c1=O` (centres unmarked) [Compound 396] here?
A: Its value is 98%.

Q: What about the “Growth inhibition rate, Post-emergence treatment, Abutilon theophrasti Medic.” value ([1]; dose 15 g a.i./hm^2) of the same compound?
A: Its value is 100%.

Q: And the “Growth inhibition rate, Post-emergence treatment, Abutilon theophrasti Medic.” value ([1]; dose 30.0 g a.i./hm^2)?
A: The value was 100%.

Q: What about the “Growth inhibition rate, Post-emergence treatment, Abutilon theophrasti Medic.” value ([1]; dose 60.0 g a.i./hm^2) of the same compound?
A: Its value is 100%.

Q: And the “Growth inhibition rate, Post-emergence treatment, Abutilon theophrasti Medic.” value ([1]; dose 120.0 g a.i./hm^2)?
A: The value was 100%.

Q: And the “Growth inhibition rate, Post-emergence treatment, Echinochloa crus-galli (L.) Beauv.” value ([2]; dose 7.5 g a.i./hm^2)?
A: The value was 20%.

Q: What about the “Growth inhibition rate, Post-emergence treatment, Echinochloa crus-galli (L.) Beauv.” value ([2]; dose 15 g a.i./hm^2) of the same compound?
A: The value was 55%.

Q: What about the “Growth inhibition rate, Post-emergence treatment, Echinochloa crus-galli (L.) Beauv.” value ([2]; dose 30.0 g a.i./hm^2) of the same compound?
A: The value was 95%.

Q: And the “Growth inhibition rate, Post-emergence treatment, Echinochloa crus-galli (L.) Beauv.” value ([2]; dose 60.0 g a.i./hm^2)?
A: The value was 100%.

Q: What about the “Growth inhibition rate, Post-emergence treatment, Echinochloa crus-galli (L.) Beauv.” value ([2]; dose 120.0 g a.i./hm^2) of the same compound?
A: Its value is 100%.

Q: And the “Growth inhibition rate, Post-emergence treatment, Setaria glauca (L.) Beauv.” value ([3]; dose 7.5 g a.i./hm^2)?
A: Its value is 25%.

Q: What about the “Growth inhibition rate, Post-emergence treatment, Setaria glauca (L.) Beauv.” value ([3]; dose 15 g a.i./hm^2) of the same compound?
A: The value was 55%.

Q: And the “Growth inhibition rate, Post-emergence treatment, Setaria glauca (L.) Beauv.” value ([3]; dose 30.0 g a.i./hm^2)?
A: The value was 85%.

Q: What about the “Growth inhibition rate, Post-emergence treatment, Setaria glauca (L.) Beauv.” value ([3]; dose 60.0 g a.i./hm^2) of the same compound?
A: Its value is 98%.

Q: And the “Growth inhibition rate, Post-emergence treatment, Setaria glauca (L.) Beauv.” value ([3]; dose 120.0 g a.i./hm^2)?
A: The value was 100%.

Q: And the “Growth inhibition rate, Post-emergence treatment, Zinnia elegans Jacq.” value (Zinnia elegans Jacq.; dose 7.5 g a.i./hm^2)?
A: Its value is 30%.

Q: What about the “Growth inhibition rate, Post-emergence treatment, Zinnia elegans Jacq.” value (Zinnia elegans Jacq.; dose 15 g a.i./hm^2) of the same compound?
A: Its value is 60%.

Q: And the “Growth inhibition rate, Post-emergence treatment, Zinnia elegans Jacq.” value (Zinnia elegans Jacq.; dose 30.0 g a.i./hm^2)?
A: Its value is 75%.

Q: And the “Growth inhibition rate, Post-emergence treatment, Zinnia elegans Jacq.” value (Zinnia elegans Jacq.; dose 60.0 g a.i./hm^2)?
A: The value was 100%.

Q: And the “Growth inhibition rate, Post-emergence treatment, Zinnia elegans Jacq.” value (Zinnia elegans Jacq.; dose 120.0 g a.i./hm^2)?
A: The value was 100%.

Q: What about the “pre-emergence and post-emergence herbicidal activity against broad-leaf weeds and grass weeds” value [4] of the same compound?
A: Its value is “good”.
